# Tests used:
# K562 = assay: Cytotoxicity against human K562 cells by colorimetric assay; assay type: functional, cell-based
# P388 = assay: Cytotoxicity against mouse P388 cells; assay type: functional, cell-based; details: Mus musculus, P388; read-out: IC50
# HeLa S3 = assay: Cytotoxicity against human HeLa S3 cells; assay type: functional, cell-based; details: Homo sapiens, HeLa S3; read-out: IC50
# A549 = assay: Cytotoxicity against human A549 cells incubated for 72 hrs by MTT assay; assay type: functional, cell-based; details: A549, 72 h
# DU-145 = assay: Cytotoxicity against human DU-145 cells assessed as reduction in cell viability incubated for 48 hrs by MTS assay; assay type: functional, cell-based; details: DU-145, time 48 hrs
# JIMT-1 = assay: Cytotoxicity against human JIMT-1 cells assessed as reduction in cell viability incubated for 48 hrs by MTS assay; assay type: functional, cell-based; details: JIMT-1, time 48 hrs
# MIA PaCa-2 = assay: Cytotoxicity against human MIA PaCa-2 cells assessed as reduction in cell viability incubated for 48 hrs by MTS assay; assay type: functional, cell-based; details: MIA PaCa-2, time 48 hrs
# PC-3 = assay: Cytotoxicity against human PC-3 cells assessed as reduction in cell viability incubated for 48 hrs by MTS assay; assay type: functional, cell-based; details: PC-3, time 48 hrs
# BT-474 = assay: Cytotoxicity against human BT-474 cells assessed as reduction in cell viability incubated for 48 hrs by MTS assay; assay type: functional, cell-based; details: BT-474, time 48 hrs
# KB = assay: Cytotoxicity against human KB cells assessed as inhibition of cell growth by measuring effective dose; assay type: functional; details: read-out: ED50 (the source's name)
smiles,measurement,setting,value
CCCCCCCCCCCCCCCCCCOCC(COC(=O)NCCCO[C@@H]1O[C@H](CO)[C@H](O)[C@H](O)[C@H]1O)OCC (some centres not stated),IC50,K562,17 µM
CO[C@@H]1[C@H](O[C@@H]2CO[C@@H](O[C@@H]3[C@@H](O)[C@H](O)CO[C@H]3N3C(=O)/C(=C(O)/C=C/C=C/C=C/C=C/C=C(Cl)/C=C/C=C/C=C/[C@@H]4O[C@H](C)C[C@@H]4Cl)C(=O)[C@@H]3CC(N)=O)[C@@H](O)[C@@H]2O)O[C@H](C)[C@H]1O,IC50,P388,0.2 µg/mL
CO[C@@H]1[C@@H](OC(N)=O)[C@@H](OC)[C@H](O[C@@H]2C[C@H]3O[C@@](O)(C2)[C@H](C)C(=O)O[C@@H](/C=C/C=C/Br)C/C(C)=C/C(=O)C3(C)C)O[C@H]1C,IC50,HeLa S3,1.2 µg/mL
CO[C@@H]1[C@H](O[C@@H]2CO[C@@H](O[C@@H]3[C@@H](O)[C@H](O)CO[C@H]3N3C(=O)/C(=C(O)/C=C/C=C/C=C/C=C/C=C(Cl)/C=C/C=C/[C@@H]4O[C@H](C)C[C@@H]4Cl)C(=O)[C@@H]3CC(N)=O)[C@@H](O)[C@@H]2O)O[C@H](C)[C@H]1O,IC50,P388,0.05 µg/mL
CCCCCCCCCCCCC(=O)OCc1cn(C[C@H]2O[C@H](OC)[C@H](O)[C@@H](O)[C@@H]2O)nn1,IC50,A549,21 µM
CCCCCCCCCCCCCCCCCCOCC(CO[C@@H]1O[C@H](CO)[C@H](O)[C@H](O)[C@H]1O)OCC (some centres not stated),IC50,K562,2.5 µM
CO[C@@H]1[C@@H](O)[C@@H](OC)[C@H](O[C@@H]2[C@@H](OC)[C@H](C)O[C@@H](O[C@@H]3C[C@H]4O[C@@](O)(C3)[C@H](C)C(=O)O[C@@H](/C=C/C=C/Br)C/C(C)=C/C(=O)C4(C)C)[C@@H]2OC)O[C@H]1C,IC50,HeLa S3,0.17 µg/mL
CCCCCCCCCCCCCCCCCCOCC(COC(=O)NCCCO[C@@H]1O[C@H](CO)[C@@H](O[C@@H]2O[C@H](CO)[C@H](O)[C@H](O)[C@H]2O)[C@H](O)[C@H]1O)OCC (some centres not stated),IC50,K562,7 µM
CO[C@@H]1[C@H](O[C@@H]2CO[C@@H](O[C@@H]3[C@@H](O)[C@H](O)CO[C@H]3N3C(=O)/C(=C(O)/C=C/C=C/C=C/C=C/C=C(Cl)/C=C/C=C/[C@H]4O[C@H](C)C[C@@H]4Cl)C(=O)[C@@H]3CC(N)=O)[C@@H](O)[C@@H]2O)O[C@H](C)[C@H]1O,IC50,P388,0.2 µg/mL
C[C@@H]1C[C@H](Cl)[C@H](/C=C/C=C/C=C/C(Cl)=C/C=C/C=C/C=C/C=C/C(O)=C2\C(=O)[C@H](CC(N)=O)N([C@@H]3OC[C@@H](O)[C@H](O)[C@H]3O[C@@H]3OC[C@@H](O[C@@H]4O[C@H](C)[C@@H](O)[C@@H]4O)[C@@H](O)[C@@H]3O)C2=O)O1,IC50,P388,> 5 µg/mL
CCCCCCCCCCCCCCCCOC[C@H](CN)O[C@@H]1O[C@@H](C)[C@H](O)[C@@H](O)[C@H]1O,CC50,DU-145,8.2 µM
same,CC50,JIMT-1,5.5 µM
same,CC50,MIA PaCa-2,8.5 µM
same,CC50,PC-3,11 µM
CCCCCCCCCCCCCCCCCCOCC(CO[C@H]1O[C@H](CO)[C@@H](O)[C@H](O)[C@@H]1O)OCC (some centres not stated),IC50,K562,3 µM
C[C@@H]1C[C@H](Cl)[C@@H](/C(Cl)=C/C=C/C(Cl)=C/C=C/C=C/C=C/C=C/C(O)=C2\C(=O)[C@H](CC(N)=O)N([C@@H]3OC[C@@H](O)[C@H](O)[C@H]3O[C@@H]3OC[C@@H](O[C@@H]4O[C@H](C)[C@@H](O)[C@@H]4O)[C@@H](O)[C@@H]3O)C2=O)O1,IC50,P388,0.2 µg/mL
CCCCCCCCCCCCCCCCOC[C@H](CO[C@@H]1O[C@@H](CO)[C@H](O)[C@@H](O)[C@@H]1O)OC,CC50,DU-145,12.5 µM
same,CC50,JIMT-1,6.5 µM
same,CC50,MIA PaCa-2,7.5 µM
same,CC50,PC-3,12.5 µM
same,CC50,BT-474,11 µM
CCCCCCCCCCCC(=O)OCc1cn(C[C@H]2O[C@H](OC)[C@H](O)[C@@H](O)[C@@H]2O)nn1,IC50,A549,21 µM
CCCCCCCCCCCCCCCCCCOCC(COC(=O)NCCCO[C@H]1O[C@H](CO)[C@@H](O)[C@H](O)[C@@H]1O)OCC (some centres not stated),IC50,K562,18 µM
CO[C@@H]1[C@H](O[C@@H]2CO[C@@H](O[C@@H]3[C@@H](O)[C@H](O)CO[C@H]3N3C(=O)/C(=C(O)/C=C/C=C/C=C/C=C/C=C(Cl)/C=C/C=C(\Cl)[C@H]4O[C@H](C)C[C@@H]4Cl)C(=O)[C@@H]3CC(N)=O)[C@@H](O)[C@@H]2O)O[C@H](C)[C@H]1O,IC50,P388,0.2 µg/mL
CCCCCCCCCCCCCCCCCCOCC(CO[C@@H]1O[C@H](CO)[C@@H](O[C@@H]2O[C@H](CO)[C@H](O)[C@H](O)[C@H]2O)[C@H](O)[C@H]1O)OCC (some centres not stated),IC50,K562,18 µM
C/C=C(\C)C(=O)O[C@H]1[C@H](O)[C@@H](O)[C@H](O[C@@H]2[C@H]3OC(=O)CCCCCCCCC[C@H](CCCCC)O[C@@H]4O[C@H](C)[C@@H](O)[C@H](O)[C@H]4O[C@@H]4O[C@H](COC(=O)[C@@H](C)[C@H](C)O)[C@@H](O)[C@H](O)[C@H]4O[C@H](O[C@H]2C)[C@@H]3OC(=O)C(C)C)O[C@@H]1C [ORIZABIN XIII],EC50,KB,1 µg/mL
C/C=C(\C)C(=O)O[C@H]1[C@H](O)[C@@H](O)[C@H](O[C@@H]2[C@H]3OC(=O)CCCCCCCCC[C@H](CCCCC)O[C@@H]4O[C@H](C)[C@@H](O)[C@H](O)[C@H]4O[C@@H]4O[C@H](COC(=O)[C@H](C)[C@@H](C)O)[C@@H](O)[C@H](O)[C@H]4O[C@H](O[C@H]2C)[C@@H]3OC(=O)C(C)C)O[C@@H]1C [ORIZABIN XII],EC50,KB,1 µg/mL
C/C=C(\C)C(=O)O[C@H]1[C@H](O)[C@@H](O)[C@H](O[C@@H]2[C@H]3OC(=O)CCCCCCCCC[C@H](CCCCC)O[C@@H]4O[C@H](C)[C@@H](O)[C@H](O)[C@H]4O[C@@H]4O[C@H](COC(=O)[C@@H](C)CC)[C@@H](O)[C@H](O)[C@H]4O[C@H](O[C@H]2C)[C@@H]3OC(=O)[C@H](C)[C@@H](C)O)O[C@@H]1C [ORIZABIN XIV],EC50,KB,1 µg/mL
CCCCC[C@H]1CCCCCCCCCC(=O)O[C@@H]2[C@@H](O[C@@H]3O[C@H](C)[C@@H](OC(=O)[C@@H](C)CC)[C@H](O)[C@H]3O)[C@H](C)O[C@@H](O[C@H]3[C@H](O[C@H]4[C@H](O1)O[C@H](C)[C@@H](O)[C@@H]4O)O[C@H](COC(=O)[C@@H](C)CC)[C@@H](O)[C@@H]3O)[C@@H]2OC(=O)[C@@H](C)[C@H](C)O [ORIZABIN XIX],EC50,KB,1 µg/mL
C/C=C(\C)C(=O)O[C@H]1[C@H](O)[C@@H](O)[C@H](O[C@@H]2[C@H]3OC(=O)CCCCCCCCC[C@H](CCCCC)O[C@@H]4O[C@H](C)[C@@H](O)[C@H](O)[C@H]4O[C@@H]4O[C@H](COC(=O)C(C)C)[C@@H](O)[C@H](O)[C@H]4O[C@H](O[C@H]2C)[C@@H]3OC(=O)[C@@H](C)[C@H](C)O)O[C@@H]1C [ORIZABIN XI],EC50,KB,1 µg/mL
CCCCC[C@H]1CCCCCCCCCC(=O)O[C@@H]2[C@@H](O[C@@H]3O[C@H](C)[C@@H](OC(=O)[C@@H](C)CC)[C@H](O)[C@H]3O)[C@H](C)O[C@@H](O[C@H]3[C@H](O[C@H]4[C@H](O1)O[C@H](C)[C@@H](O)[C@@H]4O)O[C@H](COC(=O)[C@@H](C)CC)[C@@H](O)[C@@H]3O)[C@@H]2OC(=O)[C@H](C)[C@@H](C)O [ORIZABIN XVIII],EC50,KB,1 µg/mL
C/C=C(\C)C(=O)O[C@H]1[C@H](O)[C@@H](O)[C@H](O[C@@H]2[C@H]3OC(=O)CCCCCCCCC[C@H](CCCCC)O[C@@H]4O[C@H](C)[C@@H](O)[C@H](O)[C@H]4O[C@@H]4O[C@H](COC(=O)[C@@H](C)[C@H](C)O)[C@@H](O)[C@H](O)[C@H]4O[C@H](O[C@H]2C)[C@@H]3OC(=O)[C@@H](C)CC)O[C@@H]1C [ORIZABIN XVII],EC50,KB,1 µg/mL
C/C=C(\C)C(=O)O[C@H]1[C@H](O)[C@@H](O)[C@H](O[C@@H]2[C@H]3OC(=O)CCCCCCCCC[C@H](CCCCC)O[C@@H]4O[C@H](C)[C@@H](O)[C@H](O)[C@H]4O[C@@H]4O[C@H](COC(=O)[C@H](C)[C@@H](C)O)[C@@H](O)[C@H](O)[C@H]4O[C@H](O[C@H]2C)[C@@H]3OC(=O)[C@@H](C)CC)O[C@@H]1C [ORIZABIN XVI],EC50,KB,1 µg/mL
C/C=C(\C)C(=O)O[C@H]1[C@H](O)[C@@H](O)[C@H](O[C@@H]2[C@H]3OC(=O)CCCCCCCCC[C@H](CCCCC)O[C@@H]4O[C@H](C)[C@@H](O)[C@H](O)[C@H]4O[C@@H]4O[C@H](COC(=O)[C@@H](C)CC)[C@@H](O)[C@H](O)[C@H]4O[C@H](O[C@H]2C)[C@@H]3OC(=O)[C@@H](C)[C@H](C)O)O[C@@H]1C [ORIZABIN XV],EC50,KB,1 µg/mL
CCCCC[C@H]1CCCCCCCCCC(=O)O[C@@H]2[C@@H](O[C@@H]3O[C@H](C)[C@@H](OC(=O)[C@@H](C)CC)[C@H](O)[C@H]3O)[C@H](C)O[C@@H](O[C@H]3[C@H](O[C@H]4[C@H](O1)O[C@H](C)[C@@H](O)[C@@H]4O)O[C@H](COC(=O)[C@@H](C)[C@H](C)O)[C@@H](O)[C@@H]3O)[C@@H]2OC(=O)[C@@H](C)CC [ORIZABIN XXI],EC50,KB,1 µg/mL
CCCCC[C@H]1CCCCCCCCCC(=O)O[C@@H]2[C@@H](O[C@@H]3O[C@H](C)[C@@H](OC(=O)[C@@H](C)CC)[C@H](O)[C@H]3O)[C@H](C)O[C@@H](O[C@H]3[C@H](O[C@H]4[C@H](O1)O[C@H](C)[C@@H](O)[C@@H]4O)O[C@H](COC(=O)[C@H](C)[C@@H](C)O)[C@@H](O)[C@@H]3O)[C@@H]2OC(=O)[C@@H](C)CC [ORIZABIN XX],EC50,KB,1 µg/mL
C/C=C(\C)C(=O)O[C@H]1[C@H](O)[C@@H](O)[C@H](O[C@@H]2[C@H]3OC(=O)CCCCCCCCC[C@H](CCCCC)O[C@@H]4O[C@H](C)[C@@H](O)[C@H](O)[C@H]4O[C@@H]4O[C@H](COC(=O)C(C)C)[C@@H](O)[C@H](O)[C@H]4O[C@H](O[C@H]2C)[C@@H]3OC(=O)[C@H](C)[C@@H](C)O)O[C@@H]1C [ORIZABIN X],EC50,KB,1 µg/mL

# Reference: ChEMBL document CHEMBL5260828, “Amphiphilic glycoconjugates as potential anti-cancer chemotherapeutics” (Eur J Med Chem, 2018)
